In patent US11649207B2, “Formulations of T-type calcium channel modulators and methods of use thereof” (PRAXIS PRECISION MEDICINES, INC., priority 2019, dated 2023):

Tested on: essential tremor
Test: Clinical study in essential tremor (TETRAS, accelerometer)
Format: in vivo, human
Conditions: essential tremor patient, emerging data
Method: A clinical study was conducted to investigate the efficacy, safety, and tolerability of the compound of formula (I) in essential tremor. A patient who has been diagnosed with essential tremor completed 3 study periods: Screening, Treatment period (14 days), and Safety follow-up. The patient received a stable dose of 1 tremor medication throughout the clinical trial. The patient received 20 mg of the compound of formula (I) (one tablet of formulation 5) orally once a day for 7 days and 40 mg of the compound of formula (I) (two tablets of 20 mg formulation 5) orally once a day for 7 days (total of 14 days consecutively). Efficacy of the compound of formula (I) on upper limb tremor was assessed by The Essential Tremor Rating Assessment Scale (TETRAS) upper limb score at Baseline, on Day 7, and on Day 14. Efficacy of the compound of formula (I) on other measures of tremor severity was assessed by TETRAS performance subscale score, TETRAS performance individual items, and accelerometer at Baseline, on Day 7, and on Day 14.

CC(C)(C)NC(=O)CN1CCC(CNC(=O)c2cc(F)cc(Cl)c2)CC1 [compound of formula (I)]
tolerability: well tolerated
